Laboratory results published in publication PMC5855764, “Analysis of Peptide Ligand Specificity of Different Insect Adipokinetic Hormone Receptors” (International Journal of Molecular Sciences, 2018).

Tests used:
[1] = test system: seven different insect AKH receptors; experiment: Aequorin-based bioluminescent calcium assay in CHO-WTA11 cells, statements for all seven receptors together; format: cell-based; conditions: peptide at micromolar concentrations; all analysed AKHRs
Source text: (§1) We expressed the different insect AKH receptors in Chinese hamster ovary (CHO) WTA11 cells, stably expressing apo-aequorin, a zeocin resistance gene and the promiscuous Gα16 subunit coupling to the phospholipase C and Ca^2+ signaling cascade (Euroscreen, Brussels, Belgium). The AKH from each species elicited a clear dose-dependent response in the bioluminescent calcium assay of its conspecific receptor, with an EC50 value in the low nanomolar range (Figure 3).
(§2) We analyzed the activity of the different AKH receptors using CHO-WTA11 cells, which contain a promiscuous Gα16 subunit that will induce an intracellular Ca^2+-increase upon receptor binding independent of the receptors’ natural signaling cascade (see also [48]). […]
(§3) For transfection of the cells (T75 flasks at 60–80% confluency), we dissolved 5 µg pcDNA3.1-receptor or empty pcDNA3.1 vector in 2.5 mL Opti-MEM® (Gibco) supplemented with 12.5 µL Plus™ Reagent of the Lipofectamine LTX Kit (Invitrogen) in 5 mL polystyrene round-bottom tubes. […] We monitored ligand-induced changes in intracellular Ca^2+ in the cells as described below. […]

AcypiAKHR = experiment: Aequorin-based bioluminescent calcium assay in CHO-WTA11 cells; format: cell-based, Acyrthosiphon pisum; conditions: peptide at micromolar concentrations; relative to cognate AKH
Source text: as §1, §2, §3

TricaAKHR = experiment: as above; format: cell-based, Tribolium castaneum; conditions: peptide at micromolar concentrations; relative to cognate AKH
Source text: as §1, §2, §3

HylabAKHR = experiment: as above; format: cell-based, Hylobius abietis; conditions: peptide at micromolar concentrations; relative to cognate AKH
Source text: as §1, §2, §3

Row | Substance | AKHR activation [1] | receptor activation (AcypiAKHR) | receptor activation (TricaAKHR) | receptor activation (HylabAKHR)
1 | pQ-TFQYSHGWTNamide [Crz, corazonin] | not able to activate any of the AKHRs that were analyzed to same extent as the endogenous AKHs | very limited activation | very limited activation | very limited activation
2 | pQVTF--SRDWNAamide [ACP] | only very low levels of AKHR activation | – | – | –
